# Measured values: US11434242B2, “Dopamine-b-hydroxylase inhibitors” (BIAL-PORTELA & Cª, S.A., priority 2017, dated 2022)
# Molecular target: T1, Dopamine beta hydroxylase (Homo sapiens, UniProt P09172)
# T1 construct: 125 μl of plasma; tissue Instituto Português do Sangue Transplantação; host or cells: human plasma from healthy donors
# T1 sequence (P09172 40-617 limits assumed): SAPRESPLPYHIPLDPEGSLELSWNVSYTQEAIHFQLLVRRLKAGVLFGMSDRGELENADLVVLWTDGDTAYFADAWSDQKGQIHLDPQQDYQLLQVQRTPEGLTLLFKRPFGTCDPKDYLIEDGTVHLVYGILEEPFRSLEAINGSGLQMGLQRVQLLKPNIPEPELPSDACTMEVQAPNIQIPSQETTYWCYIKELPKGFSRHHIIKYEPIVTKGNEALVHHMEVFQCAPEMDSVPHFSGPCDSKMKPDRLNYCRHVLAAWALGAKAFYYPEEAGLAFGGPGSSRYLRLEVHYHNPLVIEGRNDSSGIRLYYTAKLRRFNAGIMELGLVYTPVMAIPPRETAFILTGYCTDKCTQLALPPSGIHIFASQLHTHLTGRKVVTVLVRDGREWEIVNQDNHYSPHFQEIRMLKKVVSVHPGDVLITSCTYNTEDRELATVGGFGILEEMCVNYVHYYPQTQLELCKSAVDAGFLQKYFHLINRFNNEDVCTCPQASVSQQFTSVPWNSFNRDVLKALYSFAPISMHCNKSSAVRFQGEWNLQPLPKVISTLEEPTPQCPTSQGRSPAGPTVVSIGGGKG
# Assay: Dopamine beta hydroxylase activity in human plasma
# Format: biochemical
# Conditions: for Plasma (0.01 μM), activity in % of control: inhibitor 0.01 μM; for Plasma (0.1 μM), activity in % of control: inhibitor 0.1 μM; for Plasma (1 μM), activity in % of control: inhibitor 1 μM
# Summary of the method: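 Octopamine production from tyramine over 45 min at 37° C, measured photometrically at 330 nm after SCX extraction and periodate oxidation against an octopamine standard curve, indicates plasma DβH activity. Compounds tested at final 10, 100 and 1000 nM in human plasma, pH 5.0 cofactor buffer, 10 min preincubation; results as % of control.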
Compound,"Plasma (0.01 μM), activity in % of control","Plasma (0.1 μM), activity in % of control","Plasma (1 μM), activity in % of control"
"O=C(Cc1[nH]c(=S)n2c1[C@@H]1C[C@]1(c1cc(Br)ccc1F)C2)Nc1ccccn1 [Example 170, 2-((5aS,6aR)-5a-(5-bromo-2-fluorophenyl)-3-thioxo-2,3,5,5a,6,6a-hexahydrocyclopropa[3,4]pyrrolo[1,2-c]imidazol-1-yl)-N-(pyridin-2-yl)acetamide]",64.9 % of control,2.0 % of control,–
"O=C(Cc1[nH]c(=S)n2c1[C@@H]1C[C@]1(c1cc(Cl)ccc1F)C2)Nc1cccnc1 [Example 171, 2-((5aS,6aR)-5a-(5-chloro-2-fluorophenyl)-3-thioxo-2,3,5,5a,6,6a-hexahydrocyclopropa[3,4]pyrrolo[1,2-c]imidazol-1-yl)-N-(pyridin-3-yl)acetamide]",40.4 % of control,3.7 % of control,–
"OCCc1[nH]c(=S)n2c1C[C@H](c1c(F)c(F)cc(F)c1F)C2 [Example 172, (R)-1-(2-hydroxyethyl)-6-(2,3,5,6-tetrafluorophenyl)-2,5,6,7-tetrahydro-3H-pyrrolo[1,2-c]imidazole-3-thione]",–,46.3 % of control,8.1 % of control
"OCCc1[nH]c(=S)n2c1C[C@H](c1c(F)ccc(Br)c1F)C2 [Example 173, (R)-6-(3-bromo-2,6-difluorophenyl)-1-(2-hydroxyethyl)-2,5,6,7-tetrahydro-3H-pyrrolo[1,2-c]imidazole-3-thione]",94.2 % of control,33.1 % of control,–
"CC(C)NCCc1[nH]c(=S)n2c1[C@@H]1C[C@]1(c1cc(Cl)ccc1F)C2.Cl [Example 175, (5aS,6aR)-5a-(5-chloro-2-fluorophenyl)-1-(2-(isopropylamino)ethyl)-5,5a,6,6a-tetrahydrocyclopropa[3,4]pyrrolo[1,2-c]imidazole-3(2H)-thione hydrochloride]",–,61.7 % of control,13.8 % of control
"Fc1ccc(Br)c(F)c1[C@H]1Cc2c(CCN[C@@H]3CCOC3)[nH]c(=S)n2C1 [Example 176, (R)-6-(3-bromo-2,6-difluorophenyl)-1-(2-(((R)-tetrahydrofuran-3-yl)amino)ethyl)-2,5,6,7-tetrahydro-3H-pyrrolo[1,2-c]imidazole-3-thione]",95.3 % of control,74.9 % of control,–
"Fc1ccc(Br)c(F)c1[C@H]1Cc2c(CCN3CCC(F)(F)CC3)[nH]c(=S)n2C1 [Example 177, (R)-6-(3-bromo-2,6-difluorophenyl)-1-(2-(4,4-difluoropiperidin-1-yl)ethyl)-2,5,6,7-tetrahydro-3H-pyrrolo[1,2-c]imidazole-3-thione]",99.9 % of control,77.1 % of control,–
"O=S1(=O)CCC(NCCc2[nH]c(=S)n3c2C[C@H](c2c(F)ccc(Br)c2F)C3)CC1 [Example 178, (R)-6-(3-bromo-2,6-difluorophenyl)-1-(2-((1,1-dioxidotetrahydro-2H-thiopyran-4-yl)amino)ethyl)-2,5,6,7-tetrahydro-3H-pyrrolo[1,2-c]imidazole-3-thione]",88.2 % of control,29.5 % of control,–
"CS(=O)(=O)C1CCN(CCc2[nH]c(=S)n3c2C[C@H](c2c(F)ccc(Br)c2F)C3)CC1 [Example 179, (R)-6-(3-bromo-2,6-difluorophenyl)-1-(2-(4-(methylsulfonyl)piperidin-1-yl)ethyl)-2,5,6,7-tetrahydro-3H-pyrrolo[1,2-c]imidazole-3-thione]",93.5 % of control,48.8 % of control,–
"Fc1ccc(Br)cc1[C@]12C[C@H]1c1c(CCNCC(F)(F)F)[nH]c(=S)n1C2 [Example 180, (5aS,6aR)-5a-(5-bromo-2-fluorophenyl)-1-(2-((2,2,2-trifluoroethyl)amino)ethyl)-5,5a,6,6a-tetrahydrocyclopropa[3,4]pyrrolo[1,2-c]imidazole-3(2H)-thione]",99.2 % of control,22.3 % of control,–
"Fc1ccc(Br)c(F)c1[C@@H]1Cc2c(CCNC3CCC3)[nH]c(=S)n2C1 [Example 181, (S)-6-(3-bromo-2,6-difluorophenyl)-1-(2-(cyclobutylamino)ethyl)-2,5,6,7-tetrahydro-3H-pyrrolo[1,2-c]imidazole-3-thione]",68.9 % of control,18.3 % of control,–
"CS(=O)(=O)CCNCCc1[nH]c(=S)n2c1C[C@H](c1c(F)ccc(Br)c1F)C2 [Example 182, (R)-6-(3-bromo-2,6-difluorophenyl)-1-(2-((2-(methylsulfonyl)ethyl)amino)ethyl)-2,5,6,7-tetrahydro-3H-pyrrolo[1,2-c]imidazole-3-thione]",94.6 % of control,71.0 % of control,–
"CN(CCO)CCc1[nH]c(=S)n2c1C[C@H](c1c(F)ccc(Br)c1F)C2 [Example 183, (R)-6-(3-bromo-2,6-difluorophenyl)-1-(2-((2-hydroxyethyl)(methyl)amino)ethyl)-2,5,6,7-tetrahydro-3H-pyrrolo[1,2-c]imidazole-3-thione]",92.2 % of control,79.8 % of control,–
"C[C@@H](NCCc1[nH]c(=S)n2c1C[C@H](c1c(F)ccc(Br)c1F)C2)C1CCCCC1 [Example 184, (R)-6-(3-bromo-2,6-difluorophenyl)-1-(2-(((R)-1-cyclohexylethyl)amino)ethyl)-2,5,6,7-tetrahydro-3H-pyrrolo[1,2-c]imidazole-3-thione]",89.2 % of control,43.7 % of control,–
"Cl.Fc1ccc(Br)cc1[C@]12C[C@H]1c1c(CCN3CCCC3)[nH]c(=S)n1C2 [Example 185, (5aS,6aR)-5a-(5-bromo-2-fluorophenyl)-1-(2-(pyrrolidin-1-yl)ethyl)-5,5a,6,6a-tetrahydrocyclopropa[3,4]pyrrolo[1,2-c]imidazole-3(2H)-thione hydrochloride]",72.9 % of control,30.9 % of control,–
"Cl.Fc1ccc(Br)cc1[C@]12C[C@H]1c1c(CCNCC3CC3)[nH]c(=S)n1C2 [Example 186, (5aS,6aR)-5a-(5-bromo-2-fluorophenyl)-1-(2-((cyclopropylmethyl)amino)ethyl)-5,5a,6,6a-tetrahydrocyclopropa[3,4]pyrrolo[1,2-c]imidazole-3(2H)-thione hydrochloride]",62.7 % of control,18.0 % of control,–
"F.Fc1ccc(Br)cc1[C@]12C[C@H]1c1c(CCNC3CC3)[nH]c(=S)n1C2 [Example 187, (5aS,6aR)-5a-(5-bromo-2-fluorophenyl)-1-(2-(cyclopropylamino)ethyl)-5,5a,6,6a-tetrahydrocyclopropa[3,4]pyrrolo[1,2-c]imidazole-3(2H)-thione hydrofluoride]",72.6 % of control,21.6 % of control,–
"F.Fc1ccc(Br)cc1[C@]12C[C@H]1c1c(CCNC3CCC3)[nH]c(=S)n1C2 [Example 188, (5aS,6aR)-5a-(5-bromo-2-fluorophenyl)-1-(2-(cyclobutylamino)ethyl)-5,5a,6,6a-tetrahydrocyclopropa[3,4]pyrrolo[1,2-c]imidazole-3(2H)-thione hydrofluoride]",60.9 % of control,15.4 % of control,–
"F.Fc1ccc(Cl)cc1[C@]12C[C@H]1c1c(CCNCc3ccccc3)[nH]c(=S)n1C2 [Example 189, (5aS,6aR)-1-(2-(benzylamino)ethyl)-5a-(5-chloro-2-fluorophenyl)-5,5a,6,6a-tetrahydrocyclopropa[3,4]pyrrolo[1,2-c]imidazole-3(2H)-thione hydrofluoride]",87.4 % of control,23.2 % of control,–
"CN(CCc1[nH]c(=S)n2c1[C@@H]1C[C@]1(c1cc(Br)ccc1F)C2)C1CCCC1.F [Example 190, (5aS,6aR)-5a-(5-bromo-2-fluorophenyl)-1-(2-(cyclopentyl(methyl)amino)ethyl)-5,5a,6,6a-tetrahydrocyclopropa[3,4]pyrrolo[1,2-c]imidazole-3(2H)-thione hydrofluoride]",68.6 % of control,19.9 % of control,–
